Test results taken from PubChem BioAssay (NCI).
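Test compounds were applied to cells in 96-well plates for 48 hours at 5 doses. TGI: total growth inhibition.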

Experiments:
Experiment in all cases: NCI anticancer screen, dose series, 48 h
SW-620 colon = system: SW-620 colon
HS 578T breast = system: HS 578T breast
MDA-MB-435 = system: MDA-MB-435
T-47D breast = system: T-47D breast
K-562 leukemia = system: K-562 leukemia
SF-539 CNS = system: SF-539 CNS
SF-268 CNS = system: SF-268 CNS
SF-295 CNS = system: SF-295 CNS
KM12 colon = system: KM12 colon
HCC-2998 colon = system: HCC-2998 colon
CAKI-1 renal = system: CAKI-1 renal
DU-145 prostate = system: DU-145 prostate
HT29 colon = system: HT29 colon
COLO 205 colon = system: COLO 205 colon
HOP-62 NSCLC = system: HOP-62 NSCLC
UACC-62 melanoma = system: UACC-62 melanoma
NCI/ADR-RES ovarian = system: NCI/ADR-RES ovarian
HOP-92 NSCLC = system: HOP-92 NSCLC
HCT-15 colon = system: HCT-15 colon
PC-3 prostate = system: PC-3 prostate
M14 melanoma = system: M14 melanoma
OVCAR-4 ovarian = system: OVCAR-4 ovarian
UO-31 renal = system: UO-31 renal
OVCAR-5 ovarian = system: OVCAR-5 ovarian
A498 renal = system: A498 renal
SK-MEL-2 melanoma = system: SK-MEL-2 melanoma
OVCAR-3 ovarian = system: OVCAR-3 ovarian
A549 NSCLC = system: A549 NSCLC
SK-MEL-28 melanoma = system: SK-MEL-28 melanoma
MALME-3M melanoma = system: MALME-3M melanoma
MCF7 breast = system: MCF7 breast
HL-60(TB) leukemia = system: HL-60(TB) leukemia
U251 CNS = system: U251 CNS
RPMI-8226 leukemia = system: RPMI-8226 leukemia
BT-549 breast = system: BT-549 breast
UACC-257 melanoma = system: UACC-257 melanoma
CCRF-CEM leukemia = system: CCRF-CEM leukemia
HCT-116 colon = system: HCT-116 colon
OVCAR-8 ovarian = system: OVCAR-8 ovarian
SR leukemia = system: SR leukemia
LOX IMVI melanoma = system: LOX IMVI melanoma
SNB-75 CNS = system: SNB-75 CNS
EKVX NSCLC = system: EKVX NSCLC
ACHN renal = system: ACHN renal
MDA-MB-231 breast = system: MDA-MB-231 breast
NCI-H226 lung = system: NCI-H226 lung
RXF 393 renal = system: RXF 393 renal
SK-OV-3 ovarian = system: SK-OV-3 ovarian
NCI-H23 lung = system: NCI-H23 lung
MOLT-4 leukemia = system: MOLT-4 leukemia
NCI-H522 lung = system: NCI-H522 lung
SN12C renal = system: SN12C renal
786-0 renal = system: 786-0 renal
MDA-N = system: MDA-N
TK-10 renal = system: TK-10 renal
IGROV1 ovarian = system: IGROV1 ovarian
SNB-19 CNS = system: SNB-19 CNS
SK-MEL-5 melanoma = system: SK-MEL-5 melanoma
NCI-H460 lung = system: NCI-H460 lung

`CC(C#N)(c1ccccc1)N(CCc1ccccc1)C(=O)Oc1ccccc1` (stereo not given) was tested, and the TGI (SW-620 colon) was over 100 µM, the TGI (HS 578T breast) was over 100 µM and the TGI (MDA-MB-435) was over 100 µM. It also gave a TGI (T-47D breast) of over 100 µM, a TGI (K-562 leukemia) of over 100 µM and a TGI (SF-539 CNS) of over 100 µM. It also gave a TGI (SF-268 CNS) of over 100 µM, a TGI (SF-295 CNS) of over 100 µM and a TGI (KM12 colon) of over 100 µM. The TGI (HCC-2998 colon) was over 100 µM, the TGI (CAKI-1 renal) was over 100 µM and the TGI (DU-145 prostate) was over 100 µM. It also gave a TGI (HT29 colon) of over 100 µM, a TGI (COLO 205 colon) of over 100 µM and a TGI (HOP-62 NSCLC) of over 100 µM. For the same compound, the TGI (UACC-62 melanoma) was over 100 µM, the TGI (NCI/ADR-RES ovarian) was over 100 µM and the TGI (HOP-92 NSCLC) was 65 µM. The TGI (HCT-15 colon) was over 100 µM, the TGI (PC-3 prostate) was over 100 µM and the TGI (M14 melanoma) was over 100 µM. For the same compound, the TGI (OVCAR-4 ovarian) was over 100 µM, the TGI (UO-31 renal) was over 100 µM and the TGI (OVCAR-5 ovarian) was over 100 µM. The TGI (A498 renal) was over 100 µM, the TGI (SK-MEL-2 melanoma) was over 100 µM and the TGI (OVCAR-3 ovarian) was over 100 µM. For the same compound, the TGI (A549 NSCLC) was over 100 µM, the TGI (SK-MEL-28 melanoma) was over 100 µM and the TGI (MALME-3M melanoma) was over 100 µM. For the same compound, the TGI (MCF7 breast) was over 100 µM, the TGI (HL-60(TB) leukemia) was over 100 µM and the TGI (U251 CNS) was over 100 µM. The TGI (RPMI-8226 leukemia) was over 100 µM, the TGI (BT-549 breast) was over 100 µM and the TGI (UACC-257 melanoma) was over 100 µM. For the same compound, the TGI (CCRF-CEM leukemia) was over 100 µM, the TGI (HCT-116 colon) was over 100 µM and the TGI (OVCAR-8 ovarian) was over 100 µM. The TGI (SR leukemia) was over 100 µM, the TGI (LOX IMVI melanoma) was over 100 µM and the TGI (SNB-75 CNS) was 81.6 µM. The TGI (EKVX NSCLC) was over 100 µM, the TGI (ACHN renal) was over 100 µM and the TGI (MDA-MB-231 breast) was over 100 µM. It also gave a TGI (NCI-H226 lung) of over 100 µM, a TGI (RXF 393 renal) of over 100 µM and a TGI (SK-OV-3 ovarian) of over 100 µM. It also gave a TGI (NCI-H23 lung) of over 100 µM, a TGI (MOLT-4 leukemia) of over 100 µM and a TGI (NCI-H522 lung) of over 100 µM. For the same compound, the TGI (SN12C renal) was over 100 µM, the TGI (786-0 renal) was over 100 µM and the TGI (MDA-N) was over 100 µM. It also gave a TGI (TK-10 renal) of over 100 µM, a TGI (IGROV1 ovarian) of over 100 µM and a TGI (SNB-19 CNS) of over 100 µM. The TGI (SK-MEL-5 melanoma) was over 100 µM.

With `O=C(O)/C=C\C(=O)Nc1ccc2c(c1)-c1ccccc1C2` the TGI (SW-620 colon) was over 100 µM, the TGI (HS 578T breast) was over 100 µM and the TGI (MDA-MB-435) was over 100 µM. For the same compound, the TGI (T-47D breast) was over 100 µM, the TGI (K-562 leukemia) was over 100 µM and the TGI (SF-268 CNS) was over 100 µM. The TGI (SF-295 CNS) was over 100 µM, the TGI (KM12 colon) was over 100 µM and the TGI (HCC-2998 colon) was over 100 µM. It also gave a TGI (CAKI-1 renal) of over 100 µM, a TGI (DU-145 prostate) of over 100 µM and a TGI (HT29 colon) of over 100 µM. The TGI (COLO 205 colon) was over 100 µM, the TGI (HOP-62 NSCLC) was over 100 µM and the TGI (UACC-62 melanoma) was over 100 µM. The TGI (NCI/ADR-RES ovarian) was over 100 µM, the TGI (HOP-92 NSCLC) was over 100 µM and the TGI (HCT-15 colon) was over 100 µM. It also gave a TGI (PC-3 prostate) of over 100 µM, a TGI (NCI-H460 lung) of over 100 µM and a TGI (M14 melanoma) of over 100 µM. It also gave a TGI (OVCAR-4 ovarian) of over 100 µM, a TGI (UO-31 renal) of over 100 µM and a TGI (OVCAR-5 ovarian) of over 100 µM. It also gave a TGI (A498 renal) of over 100 µM, a TGI (SK-MEL-2 melanoma) of over 100 µM and a TGI (OVCAR-3 ovarian) of over 100 µM. For the same compound, the TGI (A549 NSCLC) was over 100 µM, the TGI (SK-MEL-28 melanoma) was over 100 µM and the TGI (MALME-3M melanoma) was over 100 µM. For the same compound, the TGI (MCF7 breast) was over 100 µM, the TGI (HL-60(TB) leukemia) was over 100 µM and the TGI (U251 CNS) was over 100 µM. For the same compound, the TGI (RPMI-8226 leukemia) was over 100 µM, the TGI (BT-549 breast) was over 100 µM and the TGI (UACC-257 melanoma) was over 100 µM. For the same compound, the TGI (CCRF-CEM leukemia) was over 100 µM, the TGI (HCT-116 colon) was over 100 µM and the TGI (OVCAR-8 ovarian) was over 100 µM. It also gave a TGI (SR leukemia) of over 100 µM, a TGI (LOX IMVI melanoma) of over 100 µM and a TGI (SNB-75 CNS) of over 100 µM. It also gave a TGI (EKVX NSCLC) of over 100 µM, a TGI (ACHN renal) of over 100 µM and a TGI (MDA-MB-231 breast) of over 100 µM. It also gave a TGI (NCI-H226 lung) of 78.2 µM, a TGI (RXF 393 renal) of over 100 µM and a TGI (SK-OV-3 ovarian) of over 100 µM. The TGI (NCI-H23 lung) was over 100 µM, the TGI (NCI-H522 lung) was over 100 µM and the TGI (SN12C renal) was over 100 µM. The TGI (786-0 renal) was over 100 µM, the TGI (MDA-N) was over 100 µM and the TGI (TK-10 renal) was over 100 µM. The TGI (IGROV1 ovarian) was over 100 µM, the TGI (SNB-19 CNS) was over 100 µM and the TGI (SK-MEL-5 melanoma) was over 100 µM.
